The values below come from US6194378A, “Fibronectin peptides-based extracellular matrix for wound healing” (The Research Foundation of State University of New York, priority 1998, dated 2001).

The subject of test [1] is human adult dermal fibroblasts. As to the kind of experiment: two-dimensional outmigration of fibroblasts from contracted collagen gels over protein coated surfaces. The settings on record: for effect of synthetic peptide added to the outmigration assay on migration of fibroblasts onto dried FN: FN coated plates. It counts as cell-based. The protocol: (§1) Primary cultures of human adult dermal fibroblasts, acquired from Marcia Simon (Living Skin Bank, SUNY at Stony Brook), the ATCC (Bethesda, Md.), or the NIA (Bethesda, Md.), are cultured in Dulbecco's modified Eagle's medium (DMEM, Life Technologies) containing 42 mM sodium bicarbonate and supplemented with 100 U/ml penicillin, 100 μg/ml streptomycin, and 10% fetal bovine serum (FBS, HyClone, Logan, Utah), at 37° C. and 5% CO2 /95% air in a humidified atmosphere. The cells are used between passages 4 and 12.
(§2) Fibroblast cultures at 80% confluence are harvested by treatment with 0.05% trypsin/0.01% EDTA. Trypsin is inactivated by addition of soy bean trypsin inhibitor in PBS containing 0.2% BSA. The cells are washed twice with DMEM+2% BSA and resuspended at a concentration of 1×10^6 cells/ml. The fibroblasts are mixed with neutralized collagen (Vitrogen 100, Celtrix Labs., Santa Clara, Calif.), 2% BSA, 30 ng/ml PDGF-BB, 30 μg/ml fibronectin, and concentrated DMEM so that the final concentration of DMEM and sodium bicarbonate is 1x. 600 μl of the cell mixture is added to the wells of a 24-well tissue culture plate, which has been precoated with 2% BSA. The collagen is allowed to polymerize at 37° C. The final concentration of collagen is 1.8 mg/ml and each gel contains 6×10^4 cells. After two hours incubation, the gels are gently detached from the plastic surface to allow contraction with the addition of 0.5 ml DMEM+2% BSA and 30 ng/ml PDGF-BB per well. The gels are incubated overnight at 37° C. in 100% humidity, 5% CO2 and 95% air.
(§3) Fibronectin, its fragments or recombinant domains were diluted with concentrated DMEM to the appropriate concentration. Aliquots of 450 μl protein solution are added to the wells of 24-well tissue culture plates (Becton-Dickinson, Lincoln Park, N.J.). After a 2 hour incubation at 37° C. in 5% CO2, plates were dried overnight at room temperature under sterile conditions.
Plates coated with dried proteins were washed once with PBS and incubated with 2% BSA for 1 hour at 37° C. to block nonspecific binding sites. After washing the plates three times with PBS, contracted-collagen gel organotypic constructs were attached to the coated plates. DMEM, 2% BSA and 30 ng/ml PDGF-BB was added to assay plates so that the medium was level with the top of the collagen gel.
For preparation of "gold standard" transmigration assays containing a dermal organotypic construct surrounded by a fibrin clot as previously described (Greiling and Clark 1997), dried fibrin fibril-coated dishes are washed once with PBS and fibroblast-contracted collagen gels are placed on the surface. Fibrinogen, at a final concentration of 300 μg/ml, is mixed with DMEM and 1.0 U/ml thrombin, added to the wells so that the solution is level with the top of the collagen gel, and allowed to clot at room temperature for 30 min. When needed, other supplements such as 30 ng/ml PDGF-BB are added to the mixture. […] All migration assays are quantified after a 24 hour incubation at 37° C. in 100% humidity, 5% CO2 and 95% air.
The number of migrated cells was quantified under a Nikon inverted phase microscope by visually counting identifiable cell nuclei located outside of the contracted collagen gel in the fibrin gel (transmigration assay) or on the matrix (outmigration assay). Within a given experiment each condition was run in triplicate and means ±SD calculated. […] Statistical differences among conditions can be determined by ANOVA.

Test [2] has as its system corneal epithelial wound. To be noted: cited from earlier work.
The subject of test [3] is human adult dermal fibroblasts. Kind of test: fibroblast adhesion assay. It counts as cell-based. How it is done: as §1, §3
Assay plates are prepared as described under fibroblast migration assays. The assay for measuring fibroblast adhesion to matrix proteins are performed essentially as described (Gailit et al. 1993) except that the cell concentration is lowered to 100,000 cells/ml or 10,000 cells/well. […] The absorbance at 590 nm is measured with a dual wavelength microtiter plate reader (THERMOmax, Molecular Devices, Menlo Park, Calif.) and the reading corrected for light scattering by subtraction of the absorbance at 450 nm.

Test [4] deals with human adult dermal fibroblasts. Kind of test: three-dimensional transmigration from collagen gel into fibrin gel. It counts as cell-based. How it is done:
as §1, §2
For preparation of "gold standard" transmigration assays containing a dermal organotypic construct surrounded by a fibrin clot as previously described (Greiling and Clark 1997), dried fibrin fibril-coated dishes are washed once with PBS and fibroblast-contracted collagen gels are placed on the surface. Fibrinogen, at a final concentration of 300 μg/ml, is mixed with DMEM and 1.0 U/ml thrombin, added to the wells so that the solution is level with the top of the collagen gel, and allowed to clot at room temperature for 30 min. When needed, other supplements such as 30 ng/ml PDGF-BB are added to the mixture. For HA 3-dimensional transmigration, wells are coated overnight at 37° C. with an appropriate solution of HA. The next day a fibroblast-contracted collagen gel is placed on the HA-coated well in DMEM, with or without 30 ng/ml PDGF-BB, is added so that the solution is level with the top of the collagen gels. All migration assays are quantified after a 24 hour incubation at 37° C. in 100% humidity, 5% CO2 and 95% air.
The number of migrated cells was quantified under a Nikon inverted phase microscope by visually counting identifiable cell nuclei located outside of the contracted collagen gel in the fibrin gel (transmigration assay) or on the matrix (outmigration assay). Within a given experiment each condition was run in triplicate and means ±SD calculated. All experiments were repeated at least three times. Statistical differences among conditions can be determined by ANOVA.
The extracellular matrix of the present invention was tested by use of the in vitro model as described in U.S. patent application Ser. No. 08/723,789, which is hereby incorporated by reference. The basis of the in vitro model is a contracted collagen gel containing fibroblasts which acquire a tissue-like phenotype within the collagen matrix. Surrounding the collagen gel, or dermal equivalent, with a fibrin clot produces a simple inside-outside model of the early cutaneous wound (FIG. 1). Without an added stimulus, no more than a few of the normal adult human dermal fibroblasts within the collagen gel would migrate into the fibrin gel. […]

Turning to “CS1: synthetic peptide from the IIICS segment of FN, SEQ ID NO:3 as tested”, the “effect of synthetic peptide added to the outmigration assay on migration of fibroblasts onto dried FN” value in test [1] was “slightly enhancing effect in the higher concentrations”.

As for chondroitin sulfate, in test [2], the “effect on wound closure” value is on record as “did not affect wound closure”.

For the substance fibronectin [FN], the “effect of reduction and alkylation of FN dimer to the monomeric state on ability to mediate adhesion” value in test [3] was “did not affect”. Besides, the “transmigration on inclusion of FN in the collagen gel and in the fibrin gel” value in test [4] (30 μg/ml FN in each gel) was “restored transmigration to a normal level”. In test [4] (FN added to fibrin gel), the “transmigration on addition of FN to the FN-depleted fibrin gel” value was “restored”. The “FN concentration giving optimal cell movement” value in test [4] (FN added to fibrin gel, FN:fibrinogen ratio 1:10) is 30 µg/mL. Moreover, the “most effective FN concentration in each gel” value in test [4] (FN in both collagen gel and fibrin gel, 10, 30, or 100 μg/ml tested) is 30 µg/mL. In test [4] (FN removed from fibrinogen by gelatin affinity chromatography, 30 ng/ml PDGF-BB), the “decrease of fibroblast transmigration into the fibrin clot after removal of FN” value is “about 80%”. Moreover, the “transmigration with FN-free collagen gels” value in test [4] (serum omitted, collagen gel contracted with PDGF-BB) is on record as “no transmigration occurred”. Also, the “effect of reduction and alkylation of FN dimer to the monomeric state on ability to mediate migration” value in test [1] is “did not affect”. For the same substance, the “percent migration of that observed on FN, no additional protein added to plates” value in test [1] (plates coated with 120 nmol/l protein, mean ± SD, triplicate, FN normalized to 100%) is 100 ± 2.7%.

With “peptide I: synthetic peptide from the heparin II binding domain of FN, SEQ ID NO:6 (YEKPGSPRREVVPRPRGV)”, the “effect of synthetic peptide added to the outmigration assay on migration of fibroblasts onto dried FN” value in test [1] is “inhibited the migration of fibroblasts onto dried FN in a dose-dependent manner”. In addition, in test [1] (collagen coated assay plates), the “effect of synthetic peptide on migration over collagen” value is recorded as “inhibitory effect in a dose-dependent manner”.
